Measured values: ChEMBL document CHEMBL3227999, “Synthesis and biological properties of N2-substituted spin-labeled analogues of actinomycin D” (J Med Chem, 1979)
pIC50: −log10 of the molar value. The source made the active and inactive calls. The rule behind the calls is not given here. Numbered stars: 1 amine (or outer) side, 2 acyl side, 3 side chain; on linkers, the order of the positions; unused ones are H or OH. Bridge positions count the residues as written; N and C are the ends. Square brackets hold non-standard residues; d marks the D form. Peptide text beside a SMILES is read from it. I, II: the chains in the order shown. Actinocin(9to1) = Cc1c2oc3c(C)ccc(C(=O)[*:1])c3nc-2c(C(=O)[*:2])c(N)c1=O; NMeV = CN[C@H](C(=O)O)C(C)C; Sar = CNCC(=O)O

How the values were obtained:
P388 [1] = experiment: Antitumor activity against mouse P388 cells allografted in CDF1 mouse assessed as survival at 0.27 mg/kg, ip administered on day 1, 5 and 9; assay type: functional; settings: route intraperitoneal
[2] = target: T1, Bacterial DNA-directed RNA polymerase (Bacteria) (UniProt P0A8V2+P0A7Z4+P0A8T7+P0A800); experiment: Inhibition of Escherichia coli DNA-dependent RNA polymerase at 20 ug/ml using Micrococcus luteus DNA as primer; assay type: protein-complex assay
L1210 [3] = experiment: Cytotoxicity against mouse L1210 cells at 0.001 ug/ml after 48 hrs; assay type: functional; settings: L1210, 48 h
[4] = target: T1, Bacterial DNA-directed RNA polymerase (Bacteria); experiment: Inhibition of Escherichia coli DNA-dependent RNA polymerase at 10 ug/ml using Micrococcus luteus DNA as primer; assay type: protein-complex assay
[5] = target: T1, Bacterial DNA-directed RNA polymerase (Bacteria); experiment: Inhibition of Escherichia coli DNA-dependent RNA polymerase at 5 ug/ml using Micrococcus luteus DNA as primer; assay type: protein-complex assay
Mus musculus [6] = experiment: Toxicity in mouse P388 cells allografted CDF1 mouse assessed as mortality at 0.27 mg/kg, ip administered on day 1, 5 and 9; assay type: organism-based; set-up: dose 0.27 mg/kg, route intraperitoneal; settings: in vivo
[7] = target: T1, Bacterial DNA-directed RNA polymerase (Bacteria); experiment: Inhibition of Escherichia coli DNA-dependent RNA polymerase at 2.5 ug/ml using calf thymus DNA as primer; assay type: protein-complex assay
P388 [8] = experiment: Antitumor activity against mouse P388 cells allografted in CDF1 mouse assessed as survival at 0.6 mg/kg, ip administered on day 1, 5 and 9; assay type: functional; settings: route intraperitoneal
L1210 [9] = experiment: Cytotoxicity against mouse L1210 cells at 0.01 ug/ml after 48 hrs; assay type: functional; settings: L1210, 48 h
Calf thymus DNA [10] = experiment: Binding affinity to calf thymus DNA at 1 x 10^-5 M by thermal denaturation assay; assay type: nucleic-acid assay; settings: Bos taurus
[11] = target: T1, Bacterial DNA-directed RNA polymerase (Bacteria); experiment: Inhibition of Escherichia coli DNA-dependent RNA polymerase at 1 ug/ml using Micrococcus luteus DNA as primer; assay type: protein-complex assay
[12] = target: T1, Bacterial DNA-directed RNA polymerase (Bacteria); experiment: Inhibition of Escherichia coli DNA-dependent RNA polymerase at 0.5 ug/ml using Micrococcus luteus DNA as primer; assay type: protein-complex assay
[13] = target: T1, Bacterial DNA-directed RNA polymerase (Bacteria); experiment: Inhibition of Escherichia coli DNA-dependent RNA polymerase at 10 ug/ml using calf thymus DNA as primer; assay type: protein-complex assay
P388 [14] = experiment: Antitumor activity against mouse P388 cells allografted in CDF1 mouse assessed as survival at 0.12 mg/kg, ip administered on day 1, 5 and 9; assay type: functional; settings: route intraperitoneal
L1210 [15] = experiment: Cytotoxicity against mouse L1210 cells at 1 ug/ml after 48 hrs; assay type: functional; settings: L1210, 48 h
L1210 [16] = experiment: Cytotoxicity against mouse L1210 cells at 0.05 ug/ml after 48 hrs; assay type: functional; settings: L1210, 48 h
P388 [17] = experiment: Antitumor activity against mouse P388 cells allografted in CDF1 mouse assessed as survival at 0.18 mg/kg, ip administered on day 1, 5 and 9; assay type: functional; settings: route intraperitoneal
[18] = target: T1, Bacterial DNA-directed RNA polymerase (Bacteria); experiment: Inhibition of Escherichia coli DNA-dependent RNA polymerase at 0.1 ug/ml using calf thymus DNA as primer; assay type: protein-complex assay
Mus musculus [19] = experiment: Toxicity in mouse P388 cells allografted CDF1 mouse assessed as weight loss at 0.18 mg/kg, ip administered on day 1, 5 and 9; assay type: organism-based; set-up: dose 0.18 mg/kg, route intraperitoneal; settings: in vivo
[20] = target: T1, Bacterial DNA-directed RNA polymerase (Bacteria); experiment: Inhibition of Escherichia coli DNA-dependent RNA polymerase at 5 ug/ml using calf thymus DNA as primer; assay type: protein-complex assay
[21] = target: T1, Bacterial DNA-directed RNA polymerase (Bacteria); experiment: Inhibition of Escherichia coli DNA-dependent RNA polymerase at 0.05 ug/ml using Micrococcus luteus DNA as primer; assay type: protein-complex assay
[22] = target: T1, Bacterial DNA-directed RNA polymerase (Bacteria); experiment: Inhibition of Escherichia coli DNA-dependent RNA polymerase at 20 ug/ml using calf thymus DNA as primer; assay type: protein-complex assay
L1210 [23] = experiment: Cytotoxicity against mouse L1210 cells at 0.1 ug/ml after 48 hrs; assay type: functional; settings: L1210, 48 h
[24] = target: T1, Bacterial DNA-directed RNA polymerase (Bacteria); experiment: Inhibition of Escherichia coli DNA-dependent RNA polymerase at 2.5 ug/ml using Micrococcus luteus DNA as primer; assay type: protein-complex assay
Mus musculus [25] = experiment: Toxicity in mouse P388 cells allografted CDF1 mouse assessed as mortality at 0.4 mg/kg, ip administered on day 1, 5 and 9; assay type: organism-based; set-up: dose 0.4 mg/kg, route intraperitoneal; settings: in vivo
L1210 [26] = experiment: Cytotoxicity against mouse L1210 cells at 10 ug/ml after 48 hrs; assay type: functional; settings: L1210, 48 h
P388 [27] = experiment: Antitumor activity against mouse P388 cells allografted in CDF1 mouse assessed as survival at 0.4 mg/kg, ip administered on day 1, 5 and 9; assay type: functional; settings: route intraperitoneal
Mus musculus [28] = experiment: Toxicity in mouse P388 cells allografted CDF1 mouse assessed as mortality at 0.6 mg/kg, ip administered on day 1, 5 and 9; assay type: organism-based; set-up: dose 0.6 mg/kg, route intraperitoneal; settings: in vivo
[29] = target: T1, Bacterial DNA-directed RNA polymerase (Bacteria); experiment: Inhibition of Escherichia coli DNA-dependent RNA polymerase at 0.25 ug/ml using Micrococcus luteus DNA as primer; assay type: protein-complex assay
[30] = target: T1, Bacterial DNA-directed RNA polymerase (Bacteria); experiment: Inhibition of Escherichia coli DNA-dependent RNA polymerase at 0.1 ug/ml using Micrococcus luteus DNA as primer; assay type: protein-complex assay
[31] = target: T1, Bacterial DNA-directed RNA polymerase (Bacteria); experiment: Inhibition of Escherichia coli DNA-dependent RNA polymerase at 0.05 ug/ml using calf thymus DNA as primer; assay type: protein-complex assay
Calf thymus DNA [32] = experiment: Binding affinity to calf thymus DNA at 1 x 10^-5 M after 30 mins by circular dichroism analysis; assay type: nucleic-acid assay; settings: Bos taurus
[33] = target: Bacterial DNA-directed RNA polymerase (Bacteria, UniProt P0A7Z4+P0A800+P0A8T7+P0A8V2); experiment: Inhibition of Escherichia coli DNA-dependent RNA polymerase; assay type: protein-complex assay
[34] = target: T1, Bacterial DNA-directed RNA polymerase (Bacteria); experiment: Inhibition of Escherichia coli DNA-dependent RNA polymerase at 0.5 ug/ml using calf thymus DNA as primer; assay type: protein-complex assay
L1210 [35] = experiment: Cytotoxicity against mouse L1210 cells at 0.5 ug/ml after 48 hrs; assay type: functional; settings: L1210, 48 h
[36] = target: T1, Bacterial DNA-directed RNA polymerase (Bacteria); experiment: Inhibition of Escherichia coli DNA-dependent RNA polymerase at 0.25 ug/ml using calf thymus DNA as primer; assay type: protein-complex assay
[37] = target: T1, Bacterial DNA-directed RNA polymerase (Bacteria); experiment: Inhibition of Escherichia coli DNA-dependent RNA polymerase at 1 ug/ml using calf thymus DNA as primer; assay type: protein-complex assay
P388 [38] = experiment: Antitumor activity against mouse P388 cells allografted in CDF1 mouse assessed as survival at 0.08 mg/kg, ip administered on day 1, 5 and 9; assay type: functional; settings: route intraperitoneal
L1210 [39] = experiment: Cytotoxicity against mouse L1210 cells at 5 ug/ml after 48 hrs; assay type: functional; settings: L1210, 48 h

T1 sequence (P0A7Z4 whole entry partner): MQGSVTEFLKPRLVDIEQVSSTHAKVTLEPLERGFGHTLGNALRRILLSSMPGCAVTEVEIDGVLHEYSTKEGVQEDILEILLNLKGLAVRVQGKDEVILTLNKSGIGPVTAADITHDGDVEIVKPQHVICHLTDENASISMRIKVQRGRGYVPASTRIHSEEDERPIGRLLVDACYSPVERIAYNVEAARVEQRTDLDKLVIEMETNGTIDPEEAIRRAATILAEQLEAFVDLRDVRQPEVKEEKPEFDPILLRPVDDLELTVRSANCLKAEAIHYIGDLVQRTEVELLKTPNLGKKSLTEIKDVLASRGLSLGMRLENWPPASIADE
T1 sequence (P0A800 2-91 partner limits assumed): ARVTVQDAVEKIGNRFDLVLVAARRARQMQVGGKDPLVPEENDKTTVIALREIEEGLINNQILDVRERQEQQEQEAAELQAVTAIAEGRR
T1 sequence (P0A8T7 whole entry partner): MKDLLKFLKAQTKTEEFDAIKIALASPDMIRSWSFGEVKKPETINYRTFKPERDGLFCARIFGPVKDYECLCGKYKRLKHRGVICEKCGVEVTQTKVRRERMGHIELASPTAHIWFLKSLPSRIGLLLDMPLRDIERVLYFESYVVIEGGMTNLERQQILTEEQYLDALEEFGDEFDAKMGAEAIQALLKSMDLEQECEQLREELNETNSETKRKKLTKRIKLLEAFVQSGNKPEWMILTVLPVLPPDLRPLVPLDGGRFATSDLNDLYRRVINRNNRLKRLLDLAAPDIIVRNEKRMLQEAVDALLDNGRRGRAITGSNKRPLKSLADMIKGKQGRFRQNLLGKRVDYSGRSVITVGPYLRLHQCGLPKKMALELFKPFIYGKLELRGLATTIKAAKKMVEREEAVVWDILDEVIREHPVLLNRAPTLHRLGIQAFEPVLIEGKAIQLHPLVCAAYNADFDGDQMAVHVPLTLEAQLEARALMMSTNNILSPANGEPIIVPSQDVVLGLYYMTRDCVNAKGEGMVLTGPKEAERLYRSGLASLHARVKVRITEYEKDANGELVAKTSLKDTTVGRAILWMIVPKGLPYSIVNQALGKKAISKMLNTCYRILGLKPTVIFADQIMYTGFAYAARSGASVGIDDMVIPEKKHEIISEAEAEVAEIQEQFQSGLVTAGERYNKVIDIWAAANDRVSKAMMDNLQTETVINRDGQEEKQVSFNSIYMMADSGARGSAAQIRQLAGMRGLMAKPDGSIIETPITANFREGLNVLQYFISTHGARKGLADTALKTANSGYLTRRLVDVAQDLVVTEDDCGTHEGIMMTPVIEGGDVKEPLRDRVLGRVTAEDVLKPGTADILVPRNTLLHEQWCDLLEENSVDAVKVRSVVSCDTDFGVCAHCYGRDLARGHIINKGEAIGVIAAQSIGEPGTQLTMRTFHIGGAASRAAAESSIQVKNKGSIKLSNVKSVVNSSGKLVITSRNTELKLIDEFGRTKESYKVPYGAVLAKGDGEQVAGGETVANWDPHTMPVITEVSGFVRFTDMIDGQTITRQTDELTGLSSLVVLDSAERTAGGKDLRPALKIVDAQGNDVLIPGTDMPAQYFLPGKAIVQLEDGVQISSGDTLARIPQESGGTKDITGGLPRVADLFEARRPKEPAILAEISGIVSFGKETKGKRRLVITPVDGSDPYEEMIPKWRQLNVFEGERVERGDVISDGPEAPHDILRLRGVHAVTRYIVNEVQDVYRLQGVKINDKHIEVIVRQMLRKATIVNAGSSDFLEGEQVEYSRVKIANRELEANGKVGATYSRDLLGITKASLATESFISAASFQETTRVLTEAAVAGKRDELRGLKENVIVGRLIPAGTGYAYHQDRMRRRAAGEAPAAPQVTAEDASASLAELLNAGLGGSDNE
T1 sequence (P0A8V2 whole entry): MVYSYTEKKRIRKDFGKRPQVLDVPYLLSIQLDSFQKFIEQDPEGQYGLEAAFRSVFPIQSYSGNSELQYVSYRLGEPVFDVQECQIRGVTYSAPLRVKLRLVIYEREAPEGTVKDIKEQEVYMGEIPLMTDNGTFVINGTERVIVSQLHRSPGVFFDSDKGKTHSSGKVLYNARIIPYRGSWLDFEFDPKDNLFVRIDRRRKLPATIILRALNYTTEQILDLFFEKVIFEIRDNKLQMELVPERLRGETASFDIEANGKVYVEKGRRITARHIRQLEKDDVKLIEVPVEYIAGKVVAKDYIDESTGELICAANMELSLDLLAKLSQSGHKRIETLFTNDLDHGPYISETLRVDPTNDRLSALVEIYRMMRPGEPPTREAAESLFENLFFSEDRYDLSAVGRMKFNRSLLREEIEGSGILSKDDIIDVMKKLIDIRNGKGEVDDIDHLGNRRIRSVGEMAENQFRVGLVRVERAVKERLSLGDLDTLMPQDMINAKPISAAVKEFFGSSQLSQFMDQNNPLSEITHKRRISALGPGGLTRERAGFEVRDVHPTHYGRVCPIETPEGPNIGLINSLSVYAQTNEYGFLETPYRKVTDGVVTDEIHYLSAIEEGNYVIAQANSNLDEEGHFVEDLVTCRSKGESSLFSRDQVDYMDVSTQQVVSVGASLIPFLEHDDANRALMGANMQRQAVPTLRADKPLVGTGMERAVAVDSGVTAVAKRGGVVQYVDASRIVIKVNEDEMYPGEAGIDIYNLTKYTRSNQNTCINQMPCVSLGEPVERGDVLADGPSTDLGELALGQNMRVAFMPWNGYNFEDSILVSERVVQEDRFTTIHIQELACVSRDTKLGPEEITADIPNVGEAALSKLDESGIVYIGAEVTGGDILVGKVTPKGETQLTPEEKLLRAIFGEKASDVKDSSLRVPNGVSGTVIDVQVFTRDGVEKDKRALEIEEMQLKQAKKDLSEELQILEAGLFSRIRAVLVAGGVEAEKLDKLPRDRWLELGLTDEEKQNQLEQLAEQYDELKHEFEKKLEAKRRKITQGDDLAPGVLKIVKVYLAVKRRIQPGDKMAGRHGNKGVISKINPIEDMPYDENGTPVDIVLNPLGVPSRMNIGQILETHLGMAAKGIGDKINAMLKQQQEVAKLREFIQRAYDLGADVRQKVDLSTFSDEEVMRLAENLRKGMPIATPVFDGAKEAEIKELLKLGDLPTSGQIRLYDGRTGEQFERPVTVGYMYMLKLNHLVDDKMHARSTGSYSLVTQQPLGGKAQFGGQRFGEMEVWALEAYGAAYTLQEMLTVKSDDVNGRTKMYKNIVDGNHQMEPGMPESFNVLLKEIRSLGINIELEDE

Cc1c2oc3c(C)ccc(C(=O)N[C@@H]4C(=O)N[C@H](C(C)C)C(=O)N5CCC[C@H]5C(=O)N(C)CC(=O)N(C)[C@@H](C(C)C)C(=O)O[C@@H]4C)c3nc-2c(C(=O)N[C@@H]2C(=O)N[C@H](C(C)C)C(=O)N3CCC[C@H]3C(=O)N(C)CC(=O)N(C)[C@@H](C(C)C)C(=O)O[C@@H]2C)c(N)c1=O [DACTINOMYCIN] (I: T[dV]P[Sar][NMeV] / II: T[dV]P[Sar][NMeV]; ester I:1-I:C, II:1-II:C; linker I:N-II:N via Actinocin(9to1))
Survival (P388 [1]): 10 days
T/C (P388 [1]): 95%
inhibition [2]: 99%
inhibition at 0.001 µg/mL (L1210 [3]): 51%
inhibition [4]: 99%
inhibition [5]: 95%
Activity (Mus musculus [6]): Toxic
inhibition [7]: 89%
Survival (P388 [8]): 5 days
T/C (P388 [8]): 48%
inhibition at 0.01 µg/mL (L1210 [9]): 57%
ΔTm (Calf thymus DNA [10]): 8.7 °C
inhibition [11]: 72%
inhibition [12]: 54%
inhibition [13]: 96%
Survival (P388 [14]): 19 days
T/C (P388 [14]): 181%
inhibition at 1 µg/mL (L1210 [15]): 97%
inhibition at 0.05 µg/mL (L1210 [16]): 78%
Survival (P388 [17]): 18 days
T/C (P388 [17]): 171%
inhibition [18]: 30%
Activity (Mus musculus [19]): Toxic
inhibition [20]: 93%
inhibition [21]: 7%
inhibition [22]: 100%
inhibition at 0.1 µg/mL (L1210 [23]): 78%
inhibition [24]: 92%
Activity (Mus musculus [25]): Toxic
inhibition at 10 µg/mL (L1210 [26]): 98%
Survival (P388 [27]): 8 days
T/C (P388 [27]): 76%
Activity (Mus musculus [28]): Toxic
inhibition [29]: 44%
inhibition [30]: 16%
inhibition [31]: 17%
Activity (Calf thymus DNA [32]): Active
pIC50 [33]: 6.80
inhibition [34]: 61%
inhibition at 0.5 µg/mL (L1210 [35]): 99%
inhibition [36]: 62%
inhibition [37]: 79%
Survival (P388 [38]): 15 days
T/C (P388 [38]): 143%
inhibition at 5 µg/mL (L1210 [39]): 99%
